# In the Kinase Knowledgebase extract (Sharma et al. 2016):
# Target: CDK2 (human) (UniProt P24941)
# Assay: Enzyme Assay
row,SMILES,IC50 [µM]
1,Cc1c(-c2ccnc(Nc3cccc(Cl)c3)n2)ccnc1NCc1ccccc1,< 5
2,CN(C)CCCNc1ncccc1-c1ccnc(Nc2cccc(Cl)c2)n1,< 5
3,Clc1cccc(Nc2nccc(-c3cccnc3NCCc3c[nH]cn3)n2)c1,< 5
4,Clc1cccc(Nc2nccc(-c3cccnc3NCCCN3CCOCC3)n2)c1,< 5
5,CC(=O)NCCCNc1ncccc1-c1ccnc(Nc2cccc(C#N)c2)n1,< 5
6,Cc1nccn1CCCNc1ncccc1-c1ccnc(Nc2cccc(Cl)c2)n1,< 5
7,CC(=O)NCCCNc1cc(-c2nc(Nc3cccc(Cl)c3)ncc2C)ccn1,< 5
8,COc1ncccc1-c1ccnc(Nc2cccc(C(=O)O)c2)n1,< 5
9,CS(=O)(=O)c1cccc(Nc2nccc(-c3cccnc3NCCCN)n2)c1,< 5
10,Cc1c(-c2ccnc(Nc3cccc(Cl)c3)n2)ccnc1NCCCN1CCCC1=O,< 5
11,COc1ncccc1-c1ccnc(Nc2cccc(-c3nncn3C)c2)n1,< 5
12,COc1cnccc1-c1ccnc(Nc2cccc(Cl)c2)n1,< 5
13,CCNS(=O)(=O)c1cccc(Nc2nccc(-c3cccnc3OC)n2)c1,< 5
14,CC(=O)NCCCNc1nccc(-c2ccnc(Nc3cccc(Cl)c3)n2)c1C,< 5
15,CCOC(=O)c1cccc(Nc2nccc(-c3cccnc3OC)n2)c1,< 5
16,Nc1cnccc1-c1ccnc(Nc2cccc(Cl)c2)n1,< 5
17,OCCCNc1ncccc1-c1ccnc(Nc2cccc(Cl)c2)n1,< 5
18,COc1cnccc1-c1ccnc(Nc2cccc(S(C)(=O)=O)c2)n1,< 5

row,SMILES,IC50 [µM]
1,COc1ncccc1-c1ccnc(Nc2cccc(C#N)c2)n1,< 5
2,CC(=O)NCCCCNc1ncccc1-c1ccnc(Nc2cccc(Cl)c2)n1,< 5
3,CC(=O)OCCCNc1ncccc1-c1ccnc(Nc2cccc(Cl)c2)n1,< 5
4,COc1ncccc1-c1ccnc(Nc2ccc(N3CCN(C)CC3)cc2)n1,< 5
5,CC(C)NCCCNc1ncccc1-c1ccnc(Nc2cccc(Cl)c2)n1,< 5
6,COc1ncccc1-c1ccnc(Nc2cccc(S(C)(=O)=O)c2)n1,< 5
7,NCCCNc1ncccc1-c1ccnc(Nc2cccc(S(N)(=O)=O)c2)n1,< 5
8,CC(=O)NCCCNc1ncccc1-c1ccnc(Nc2cccc(S(N)(=O)=O)c2)n1,< 5
9,Cc1cnc(Nc2cccc(Cl)c2)nc1-c1cccnc1NCCCN,< 5
10,COCCCNc1ncccc1-c1ccnc(Nc2cccc(Cl)c2)n1,< 5
11,COc1ncccc1-c1ccnc(Nc2cccc(C3CCNCC3)c2)n1,< 5
12,Cc1cnccc1-c1ccnc(Nc2cccc(Cl)c2)n1,< 5
13,Cc1c(-c2ccnc(Nc3cccc(Cl)c3)n2)ccnc1NCCCN1CCOCC1,< 5
14,O=C1CCCN1CCCNc1ncccc1-c1ccnc(Nc2cccc(Cl)c2)n1,< 5
15,COCCCNc1nccc(-c2ccnc(Nc3cccc(Cl)c3)n2)c1C,< 5
16,CC(=O)NCCCNc1ncccc1-c1ccnc(Nc2cccc(Cl)c2)n1,< 5
17,NS(=O)(=O)c1cccc(Nc2nccc(-c3cccnc3NCCCn3ccnc3)n2)c1,< 5
18,COc1ncccc1-c1ccnc(Nc2cccc(S(=O)(=O)N3CCCCC3)c2)n1,< 5

# More lines, now with the values ahead:
row,IC50 [µM],SMILES
1,< 5,CCNC(=O)c1cccc(Nc2nccc(-c3cccnc3OC)n2)c1
2,< 5,CC(=O)NCCCNc1nccc(-c2ccnc(Nc3cccc([N+](=O)[O-])c3)n2)c1C
3,< 5,COc1ncccc1-c1ccnc(Nc2cccc(S(N)(=O)=O)c2)n1
4,< 5,COc1ncccc1-c1ccnc(Nc2cccc(NC(C)=O)c2)n1
5,< 5,Clc1cccc(Nc2nccc(-c3cccnc3NCCCn3ccnc3)n2)c1
6,< 5,COc1ncccc1-c1ccnc(Nc2cccc(C(N)=O)c2)n1
7,< 5,NCCCCNc1ncccc1-c1ccnc(Nc2cccc(Cl)c2)n1
8,< 5,COc1ncccc1-c1ccnc(Nc2cccc(-c3cnco3)c2)n1
9,< 5,CC(C)(CN)CNc1ncccc1-c1ccnc(Nc2cccc(Cl)c2)n1
10,< 5,CNS(=O)(=O)c1cccc(Nc2nccc(-c3cccnc3OC)n2)c1
11,< 5,CCCCNS(=O)(=O)c1cccc(Nc2nccc(-c3cccnc3OC)n2)c1
12,< 5,COc1ncccc1-c1ccnc(Nc2ccc3cn[nH]c3c2)n1
13,< 5,NCCNc1ncccc1-c1ccnc(Nc2cccc(Cl)c2)n1
14,< 5,N#Cc1cccc(Nc2nccc(-c3cccnc3NCCCN)n2)c1
15,< 5,CS(=O)(=O)NCCCNc1ncccc1-c1ccnc(Nc2cccc(Cl)c2)n1
16,< 5,NCCCNc1ncccc1-c1ccnc(Nc2cccc(Cl)c2)n1
17,< 5,CC(=O)NCCNc1ncccc1-c1ccnc(Nc2cccc(Cl)c2)n1
18,< 5,Cc1c(-c2ccnc(Nc3cccc(Cl)c3)n2)ccnc1NCCCn1ccnc1
19,< 5,COc1ccc(-c2ccnc(Nc3cccc(S(C)(=O)=O)c3)n2)c(OC)n1
20,< 5,COc1cnccc1-c1ccnc(Nc2cccc(S(N)(=O)=O)c2)n1
21,< 5,CC(=O)NCCCNc1cc(-c2ccnc(Nc3cccc(Cl)c3)n2)cc(C)n1
22,< 5,CC(=O)NCC(C)(C)CNc1ncccc1-c1ccnc(Nc2cccc(Cl)c2)n1
23,< 5,CNCCNc1nccc(-c2ccnc(Nc3cccc(Cl)c3)n2)c1C
24,< 5,COc1ncccc1-c1ccnc(Nc2cccc(C(=O)OC(C)(C)C)c2)n1
25,< 5,COc1ncccc1-c1ccnc(Nc2cccc(S(=O)(=O)NCCO)c2)n1
